Eight compounds from ChEMBL document CHEMBL5325473, “Conformational study into N-alkyl-N'-aryl ureas to inform drug discovery” (Bioorg Med Chem, 2023) can be followed below.

A short description of data set [1]: Aqueous solubility of compound at pH 7.4. The class given is physicochemical.
The target in data set [2] is Cyclin-dependent kinase 2 (Homo sapiens, UniProt P24941). The data set is described as follows: Binding affinity to human Avi-tagged CDK2 expressed in Escherichia coli BL21 DE3 assessed as dissociation constant by Surface plasmon resonance analysis. On the technique in general: SPR reads the build-up and loss of mass on a sensor chip optically.
In data set [3] the target is Epidermal growth factor receptor (Mus musculus, UniProt Q01279). The data set is described as follows: Displacement of probe N-(4-(4-(3-((4-((3-chloro-4-fluorophenyl)amino)-7-methoxyquinazolin-6-yl)oxy)propyl)piperazin-1-yl)-4-oxobutyl)-3-(5,5-difluoro-7,9-dimethyl-5H-5l4,6l4-dipyrrolo[1,2-c:2',1'-f][1,3,2]diazaborinin-3-yl)propenamide from C-terminal His-tagged wild type mouse EGFR incubated for 30 mins by probe displacement based TR-FRET assay.

Data set [4] can be described thus: Chromatographic hydrophobicity index, log D of the compound by HPLC analysis. The class given is physicochemical.

SMILES strings stand for the structures. ≈ marks a conversion by molar mass, not a printed value.

Sequence of Epidermal growth factor receptor (Q01279 whole entry): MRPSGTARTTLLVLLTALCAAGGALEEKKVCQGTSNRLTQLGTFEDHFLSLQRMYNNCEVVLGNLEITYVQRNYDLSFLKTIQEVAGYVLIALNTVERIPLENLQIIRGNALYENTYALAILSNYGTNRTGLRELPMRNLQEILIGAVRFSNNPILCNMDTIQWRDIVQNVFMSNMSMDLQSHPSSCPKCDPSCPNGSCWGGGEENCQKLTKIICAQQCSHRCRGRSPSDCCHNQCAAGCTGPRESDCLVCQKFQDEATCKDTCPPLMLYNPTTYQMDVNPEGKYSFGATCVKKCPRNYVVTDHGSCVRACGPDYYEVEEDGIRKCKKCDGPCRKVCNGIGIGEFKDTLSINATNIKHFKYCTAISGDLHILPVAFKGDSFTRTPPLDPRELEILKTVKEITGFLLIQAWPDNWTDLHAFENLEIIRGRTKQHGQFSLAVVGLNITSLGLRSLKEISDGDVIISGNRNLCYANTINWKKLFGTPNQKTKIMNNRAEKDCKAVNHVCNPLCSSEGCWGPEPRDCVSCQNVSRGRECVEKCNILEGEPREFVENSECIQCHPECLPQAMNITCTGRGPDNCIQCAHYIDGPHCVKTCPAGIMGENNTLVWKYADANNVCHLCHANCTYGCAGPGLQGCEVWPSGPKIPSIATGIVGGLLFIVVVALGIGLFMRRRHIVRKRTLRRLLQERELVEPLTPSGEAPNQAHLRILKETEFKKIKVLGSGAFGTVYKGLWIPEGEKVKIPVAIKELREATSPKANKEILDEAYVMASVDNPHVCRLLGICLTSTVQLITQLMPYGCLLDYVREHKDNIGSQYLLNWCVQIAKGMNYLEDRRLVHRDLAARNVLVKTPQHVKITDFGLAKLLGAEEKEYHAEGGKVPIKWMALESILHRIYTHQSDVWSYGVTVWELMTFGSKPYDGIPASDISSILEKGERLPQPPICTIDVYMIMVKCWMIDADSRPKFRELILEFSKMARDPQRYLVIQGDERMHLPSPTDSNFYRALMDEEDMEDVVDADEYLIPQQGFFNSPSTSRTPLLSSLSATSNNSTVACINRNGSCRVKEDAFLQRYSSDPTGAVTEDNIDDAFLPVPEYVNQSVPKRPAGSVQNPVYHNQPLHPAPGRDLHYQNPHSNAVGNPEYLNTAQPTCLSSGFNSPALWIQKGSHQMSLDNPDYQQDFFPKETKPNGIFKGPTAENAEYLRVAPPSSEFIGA

By solubility is commonly meant the concentration that dissolves in the medium under given conditions. Low values mean a poorly soluble substance, high ones a readily soluble substance. One may read the Kd as the free concentration of one partner at which half of the binding sites on the other are occupied at equilibrium, for simple one-to-one binding. Usually IC50 stands for the concentration needed to halve the response being measured. The term chromatographic logD denotes a lipophilicity value derived from retention on a column. The low end stands for a more hydrophilic compound, the high end for a more lipophilic compound. In the case of `CN(C(=O)N(C)C1CCCC1)c1ccccc1`, the solubility in data set [1] is 77 µM (≈ 17.9 µg/mL). In data set [2], the Kd is 3.16 mM. This compound also gave an IC50 in data set [3] of 0.126 mM. The same compound displayed a chromatographic logD in data set [4] of 3.6.

In the case of `CN(C(=O)Nc1ccccc1)C1CCCC1`, the solubility in data set [1] worked out at 98 µM (≈ 21.4 µg/mL). Besides, in data set [2], the Kd is 2 mM. Moreover, the 50% inhibitory concentration (IC50) in data set [3] was greater than 1 mM. In data set [4], the chromatographic logD stood at 2.8.

With `CN(C(=O)Nc1ccccn1)C1CCCC1`, in data set [1], the concentration in solution (solubility) was 102 µM (≈ 22.4 µg/mL). Besides, in data set [2], the Kd was 2.51 mM. Besides, the half-maximal inhibitory concentration (IC50) in data set [3] is 0.794 mM. In data set [4], this compound registered a chromatographic logD of 2.1.

`CN(C(=O)NC1CCCC1)c1ccccc1` had a solubility in data set [1] of 104 µM (≈ 22.7 µg/mL). The Kd in data set [2] was 7.94 mM. The compound further showed an IC50 in data set [3] of 0.1 mM. The same compound had a chromatographic logD in data set [4] of 2.7.

As for `CN(C(=O)N(C)C1CCCC1)c1ccccn1`, the concentration in solution in data set [1] (solubility) came to 114 µM (≈ 26.6 µg/mL). For the same compound, the Kd in data set [2] was 15.8 mM. The same compound had an IC50 in data set [3] greater than 1 mM. The chromatographic logD in data set [4] was 2.2.

Take `O=C(Nc1ccccn1)NC1CCCC1`: the solubility in data set [1] stood at 93 µM (≈ 19.1 µg/mL). The Kd in data set [2] is 0.398 mM. In data set [3], the IC50 is 0.398 mM. In data set [4], this compound returned a chromatographic logD of 2.4.

`CN(C(=O)NC1CCCC1)c1ccccn1` registered a solubility in data set [1] of 87 µM (≈ 19.1 µg/mL). The Kd in data set [2] is 1.58 mM. Moreover, the IC50 in data set [3] is greater than 1 mM. For the same compound, in data set [4], the chromatographic logD stood at 3.

Regarding `O=C(Nc1ccccc1)NC1CCCC1`, in data set [1], the solubility turned out to be 85 µM (≈ 17.4 µg/mL). Further, in data set [2], the Kd was 1 mM. In data set [3], this compound had an IC50 of 0.2 mM. For the same compound, the chromatographic logD in data set [4] is 2.4.
